Patent publication US20110065595A1, “Method and Test Kit for the Rapid Identification and Characterization of Cells” (priority 2007, published 2011)

Tested on: strain B of Bacillus cereus (β-lactamase SF-marker)
Assay: Sensitivity profile of B. cereus in soil suspension using inducible β-lactamase as SF-marker (iodometric starch-iodine decolorization)
Type: cell-based
Details: for effect on activity / synthesis of the SF marker (β-lactamase) / sensitivity or resistance of strain B to the antibiotic: judged from decolorization time; for Decolorization time: soil suspension in nutrient broth with 1.0 mcg cloxacillin inducer, 10 min at 30° C., then Assay Reagent with phenoxymethylpenicillin, control without addition 47 seconds, activity inversely proportional to time; for inhibition of the enzymatic reaction / remaining part of the enzymatic reaction: compared with control sample; for increase of time needed for decolorization versus control: compared with control sample (47 seconds)
Description: Reagents • Nutrient broth and Nutrient Agar were purchased from Difco (cat. No. #233000 and #211665, respectively). • Mueller Hinton agar—purchased from Difco (cat. No. 225250). • Assay Reagent solution—50 mM potassium iodide and 10 mM iodine in 0.75% aqueous starch solution • L-alanine—was used for spore germination (purchased from Fluka, cat no. 29236).
BBL antibiotic sensitivity testing disks were used for sensitivity profiling were placed in respective test tubes:
Preparation of anti-penicillinase antibodies was previously described by the present inventor [Citri, N; et al. Nature 190 (478):1010-1011 (1961)]. Briefly neutralizing antiserum was prepared by immunizing rabbits with a highly purified preparation of exopenicillinase produced by strain 569/H of B. cereus. Twenty mg of the enzyme were administered with Freund's adjuvant in three intramuscular injections at ten-day intervals.
In order to perform a combined characterization of bacteria identification and antibiotic sensitivity profiling, the inventor used a strain of Bacillus cereus expressing the characterizing enzyme β-lactamase (penicillinase) that is used herein as a structural-functional marker (SF-marker).
A colony of strain B of Bacillus cereus was dispersed in 0.5 gm of garden soil suspended in 3 ml of distilled water. Samples of the suspension, 0.3 ml each, were placed in 5 test, tubes, each containing 0.5 ml nutrient broth [double strength] spiked with 1.0 mcg cloxacillin, and each supplemented as listed in Table 1 below. After 10 min. at 30° C. the test was initiated by the addition to each test tube of 0.1 ml of the Assay Reagent solution containing the substrate, phenoxymethylpenicillin [10 mg/mL]. The time required for complete decolorization of the starch-iodine complex by the product of the catalytic reaction was recorded as shown in Table 1.

| effect on activity / synthesis of the SF marker (β-lactamase) | sensitivity or resistance of strain B to the antibiotic | Compound | Decolorization time [s] | inhibition of the enzymatic reaction | remaining part of the enzymatic reaction | increase of time needed for decolorization versus control |
| --- | --- | --- | --- | --- | --- | --- |
| inhibited | sensitive | CC[C@H]1OC(=O)[C@H](C)[C@@H](O[C@H]2C[C@@](C)(OC)[C@@H](O)[C@H](C)O2)[C@H](C)[C@@H](O[C@@H]2O[C@H](C)C[C@H](N(C)C)[C@H]2O)[C@](C)(O)C[C@@H](C)C(=O)[C@H](C)[C@@H](O)[C@]1(C)O [Erythromycin] | >850 | about 99% | about 0.12% | ~18 folds |
| inhibited | sensitive | C[C@H]1c2cccc(O)c2C(=O)C2=C(O)[C@]3(O)C(=O)C(C(N)=O)=C(O)[C@@H](N(C)C)[C@@H]3[C@@H](O)[C@@H]21 [Doxycyclin, Doxycycline] | 815 | about 99% | about 0.12% | about 17.3 folds |

| Compound | effect on activity / synthesis of the SF marker (β-lactamase) | sensitivity or resistance of strain B to the antibiotic | Decolorization time [s] | inhibition of the enzymatic reaction | remaining part of the enzymatic reaction | increase of time needed for decolorization versus control |
| --- | --- | --- | --- | --- | --- | --- |
| Gentamicin | no effect | resistant | 48 |  |  |  |
